Measurements reported in patent US11752125B2, “Anti-neuroinflammatory and protective compounds in Achillea fragrantissima” (THE STATE OF ISRAEL MINISTRY OF AGRICULTURE & RURAL …, priority 2013, dated 2023).

How the values were obtained:
SAPK/JNK = test: H2O2-induced SAPK/JNK phosphorylation in astrocytes (ELISA); type: cell-based, rat; details: H2O2 175 μM 40 min
Method: Astrocytes were treated with TTF 2 h before the addition of H2O2. Cells were lysed 40 minutes after the addition of H2O2 in lysis buffer supplied by PathScan sandwich ELISA kit (Cell Signaling TECHNOLOGY) according to the manufacturer's protocol. Protein concentrations in cell lysates were determined by Bradford reagent (Bio-Rad, Hercules, Calif.), and equal amounts of proteins were subjected to ELISA. To measure the amount of total and phosphoSAPK/JNK in cell lysates of astrocytes, ELISA was performed according to the manufacturer's protocol using the PathScan total SAPK/JNK sandwich ELISA kit (Cell Signaling TECHNOLOGY) and the PathScan phospho-SAPK/JNK (Thr183/Tyr185) sandwich ELISA kit (Cell Signaling TECHNOLOGY), respectively. […] The optical density was determined at 450 nm using a microplate reader.
1. […] Determine the optical density at 450 nm using a microplate reader.
Astrocytes were treated with 175 μM of H2O2 for 40 min following preincubation with TTF for 2 h. The levels of phosphorylated and total SAPK/JNK (FIG. 3A), MEK1 (FIG. 3B) and ERK 1/2 (FIG. 3C) were measured by ELISA. […]

N2a neuronal cells = test: Glutamate-induced neuronal cell death (LDH); type: cell-based; details: LDH 20 hr later
Method: Grow N2a cells in DMEM (high glucose, 225 ml), Opti-MEM (250 ml) containing 1% Fetal Bovine Serum, 2 mM L-Glutamine, 100 U/ml penicillin and 100 micrograms/mL streptomycin.
Treat N2a neuronal cells with AcA or TTF.
Two hr later add 100 micromolars of freshly diluted glutamate;
Incubate the culture for 20 hr (37° C., 5% CO2);
Measure cytotoxicity by the LDH method
N2a neuronal cells were treated with glutamate (100 μM) and TTF. Cytotoxicity was measured 20 hr later. The results are shown in FIG. 16 and are the mean±SEM of one experiment (n=8).
Achillolide A was added to N2a cells before (−2 h, −1 h) concomitant (0) or after (1 h, 2 h) the addition of glutamate. Cytotoxicity was measured 20 h later by the levels of LDH in the conditioned media. Results are means±SEM of two experiments (n=16). **P<0.01, ***P<0.001, compared to cells that were treated with glutamate only.
N2a neuronal cells were treated with Aβ25-35 (25 μM) and achillolide A. Cytotoxicity was measured 20 hr later. The results are the means±SEM of two different experiments (n=16).
N2a neuronal cells were treated with Aβ25-35 (25 μM) and achillolide A or memantine. Cytotoxicity was measured 20 hr later. The results are the mean±SEM of two different experiments (n=16) for AcA and one experiment (n=8) for memantine.

microglial cells = test: Cytotoxicity in LPS-activated microglial cells (LDH); type: cell-based, rat; details: LPS 4.5 ng/mL, 20 h
Method: Cell viability was determined using a commercial colorimetric assay (Roche Applied Science, Germany) which measures Lactate Dehydrogenase (LDH) activity released from the cytosol of damaged cells into the incubation medium. The absorbance was measured at 492 nm in a plate reader. The percentage of cytotoxicity was calculated according to the following equation, where the LDH activity released from the untreated cells is the spontaneous LDH release, and the maximum releasable LDH in the cells is the:
In FIG. 21 A, microglial cells were treated with different concentrations of achillolide A, dexamethasone or memantine (as reference drugs) and were concomitantly activated by LPS (4.5 ng/mL) for 20 h. Cell conditioned supernatants were collected, and the levels of NO were measured using Griess reaction. Cytotoxicity was measured using the LDH method (FIG. 21B). Values represent the mean±SEM (n=12 for each treatment). ** p<0.01; ***p<0.001 relative to cells that were treated to LPS only.

Row | SMILES | effect on H2O2-induced phosphorylation of SAPK/JNK (SAPK/JNK; astrocytes preincubated 2 h) | effect on glutamate-induced cytotoxicity (N2a neuronal cells) | cytotoxic effect in activated microglial cells (microglial cells) | inhibition of H2O2-induced phosphorylation of SAPK/JNK (SAPK/JNK; astrocytes pretreated 2 h, total SAPK/JNK not affected) [%]
1 | C=C1CCC2=C(CO)C(=O)O[C@H]2/C=C(\C)[C@H](OC(C)=O)CC1=O [achillolide A] | inhibitory effect | prevents the cytotoxic effect at nanomolar concentrations | without a significant cytotoxic effect | –
2 | COc1cc(-c2oc3cc(OC)c(OC)c(O)c3c(=O)c2O)ccc1O [TTF, 3,5,4′-trihydroxy-6,7,3′-trimethoxyflavone] | – | prevents the cytotoxic effect at nanomolar concentrations | – | 80
